From publication PMC5207785, “Arginine and Lysine Transporters Are Essential for Trypanosoma brucei” (PLoS ONE, 2017) come the findings set out here.

Data set [1] addresses T1, TbAAT5-3 (Trypanosoma brucei, UniProt Q57UX9).
T1 construct: gene Tb08.4A8.362; full-length ORF (1377 bp incl. stop) in pDR197, untagged, expressed in S. cerevisiae 21.983c; nt 96 resolved as C (Asp)
T1 sequence (Q57UX9 1-458): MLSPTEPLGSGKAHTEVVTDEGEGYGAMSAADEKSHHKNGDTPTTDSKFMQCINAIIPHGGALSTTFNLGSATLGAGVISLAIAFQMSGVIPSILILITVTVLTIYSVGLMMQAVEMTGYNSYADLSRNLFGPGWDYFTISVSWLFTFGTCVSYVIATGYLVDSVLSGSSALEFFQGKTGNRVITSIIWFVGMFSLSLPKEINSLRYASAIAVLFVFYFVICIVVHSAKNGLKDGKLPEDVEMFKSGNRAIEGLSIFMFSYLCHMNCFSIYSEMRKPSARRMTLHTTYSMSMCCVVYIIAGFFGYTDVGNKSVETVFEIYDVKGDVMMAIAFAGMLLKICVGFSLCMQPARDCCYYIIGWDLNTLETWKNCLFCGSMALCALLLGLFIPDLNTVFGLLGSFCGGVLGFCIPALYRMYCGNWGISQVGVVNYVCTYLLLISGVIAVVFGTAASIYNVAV
The data set is described as follows: competition of L-[3H]-arginine uptake in S. cerevisiae […]c. The data set is classed as cell-based. The conditions noted are these: 5000 µM; 50 μM L-arginine; pH 6.0.

Data set [2] has as its target T1, TbAAT5-3. The data set is described as above. Type of data set: cell-based. The conditions noted are these: 500 µM, 50 μM L-arginine, pH 6.0.
Another data set concerns the target T2, TbAAT16-1 (Trypanosoma brucei, UniProt Q381K2).
T2 construct: gene Tb11.01.7500; full-length ORF (1389 bp incl. stop) in pDR197, untagged, expressed in S. cerevisiae 22Δ7AA; syntenic TREU927 gene Tb927.11.15840
T2 sequence (Q381K2 1-462): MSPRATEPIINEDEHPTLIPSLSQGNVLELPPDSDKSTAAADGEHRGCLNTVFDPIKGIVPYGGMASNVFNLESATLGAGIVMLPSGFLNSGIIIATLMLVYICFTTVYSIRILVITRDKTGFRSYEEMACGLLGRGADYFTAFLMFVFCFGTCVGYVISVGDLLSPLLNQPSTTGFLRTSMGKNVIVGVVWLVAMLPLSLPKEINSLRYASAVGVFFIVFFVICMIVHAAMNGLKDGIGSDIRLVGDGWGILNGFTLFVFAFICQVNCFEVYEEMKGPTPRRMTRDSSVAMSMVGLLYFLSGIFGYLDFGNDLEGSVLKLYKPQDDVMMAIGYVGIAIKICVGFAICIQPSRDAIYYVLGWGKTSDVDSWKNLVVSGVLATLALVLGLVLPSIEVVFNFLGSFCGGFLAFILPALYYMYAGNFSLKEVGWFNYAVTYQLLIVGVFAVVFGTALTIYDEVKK
Kind of data set: competition of L-[3H]-lysine uptake in S. cerevisiae […]Δ7AA. Type of data set: cell-based. The conditions noted are these: 500 µM; 50 μM L-lysine; pH 4.5.

Substrate in data set [3]: NCCCC[C@H](N)C(=O)O
The data set is described as follows: cells, lysate or membranes. Particulars: labelled compound, 30 °C, 100 mM glucose, empty-vector background subtracted, pH of this assay not given.

Substrate in data set [4]: N=C(N)NCCC[C@H](N)C(=O)O
The data set is described as follows: cells, lysate or membranes. Type of data set: cell-based, Trypanosoma brucei. The conditions noted are these: labelled compound, 30 °C, 100 mM glucose, empty-vector background subtracted, pH of this assay not given.

On to `NCCCC[C@H](N)C(=O)O` [L-lysine], for which the “L-[^3H]-arginine uptake rate (%) / 100x” value on TbAAT5-3 [1] is 56.5 ± 8.2%.
As for `N=C(N)NOCC[C@H](N)C(=O)O` [Canavanine], the “L-[^3H]-arginine uptake rate (%) / 10x” value at TbAAT5-3 [2] is on record as 38.5 ± 4.5%.
For the molecule `CCOC(=O)[C@@H](N)CCCNC(=N)N` [Arginine ethyl ester], the “L-[^3H]-arginine uptake rate (%) / 100x” value on TbAAT5-3 [1] is given as 72.5 ± 8.7%.
For `N=C(N)NCCC[C@H](N)C(=O)Nc1ccc2ccccc2c1` [Arginine-β-naphthylamide], on TbAAT5-3 [2] (unspecific effect of the amphipathic compound not excluded), the “L-[^3H]-arginine uptake rate (%) / 10x” value stood at 69 ± 6.6%.
For `NCCSC[C@H](N)C(=O)O` [Thialysine, S-(2-aminoethyl)-L-cysteine], the “L-[^3H]-lysine uptake rate (%) / 10x” value on TbAAT16-1 is given as 35.3 ± 1.8%.
Turning to `COC(=O)[C@@H](N)CCCNC(=N)N` [Arginine methyl ester], the “L-[^3H]-arginine uptake rate (%) / 100x” value at TbAAT5-3 [1] stood at 67.6 ± 10.3%.
Consider `NCCCC[C@H](NC(=O)OCC1c2ccccc2-c2ccccc21)C(=O)O` [Fmoc-Lysine, N-α-(9-fluorenylmethyloxycarbonyl)-L-lysine], for which the “L-[^3H]-lysine uptake rate (%) / 10x” value on TbAAT16-1 worked out at 57.6 ± 6.9%.
In the case of `N=C(N)NCCCC[C@H](N)C(=O)O` [Homoarginine], the “L-[^3H]-arginine uptake rate (%) / 10x” value on TbAAT5-3 [2] came to 25.6 ± 4.2%.

B1: TbAAT16-1 (Trypanosoma brucei brucei TREU927) (protein)
chain: T2 sequence (Q381K2 1-462)
Turning to B1, in data set [3], the Km is 4.3 ± 0.5 µM.

B2: TbAAT5-3 (Trypanosoma brucei brucei TREU927) (protein)
chain: T1 sequence (Q57UX9 1-458)
notes: full-length ORF (1377 bp incl. stop) in pDR197, untagged, expressed in S. cerevisiae 21.983c; nt 96 resolved as C (Asp)
Regarding B2, in data set [4], the Km worked out at 3.6 ± 0.4 µM.
